Values belong to the molecule of their own block, whether it stands above or below them.
Molecular target: T1, élastase de leucocytes humains (Homo sapiens, UniProt P08246)
T1 construct: purchased Elastin Products Co. SE 563; host or cells: human leukocytes, as the enzyme's name says
T1 sequence (P08246 30-267): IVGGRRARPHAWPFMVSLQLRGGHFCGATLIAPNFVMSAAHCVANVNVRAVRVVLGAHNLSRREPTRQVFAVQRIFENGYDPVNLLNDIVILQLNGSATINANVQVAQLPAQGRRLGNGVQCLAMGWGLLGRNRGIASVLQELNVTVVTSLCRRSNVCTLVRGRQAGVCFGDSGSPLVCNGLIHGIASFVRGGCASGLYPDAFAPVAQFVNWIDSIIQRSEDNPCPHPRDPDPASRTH
Assay: Anti-elastase activity: release of p-nitroaniline from N-succinyl-(Ala)3-p-nitroanilide, spectrophotometry at 410 nm
Assay type: biochemical
Conditions: pH 8, 37°C, pH8, 5 min preincubation, substrate 250 µM, read-out: % I (%); for inhibition at 250 µM: Concentration 250 µM; for inhibition at 500 µM: Concentration 500 µM
From the text: Les exemples qui suivent permettent d'illustrer l'invention. Dans ces exemples, on utilise les méthodes d'analyse suivantes : - Spectrographie infrarouge (IR) Les spectres sont réalisés au moyen d'un appareil PERKIN ELMER 1760 IRTF, en dispersion dans KBr à 1 %. Les valeurs sont exprimées en nombre d'onde par centimètre. - Résonance magnétique nucléaire (RMN) Les spectres sont réalisés au moyen d'un appareil BRUCKER DRX 500, à 500 MHz (^1H) et 125 MHz (^13C) dans le DMSO-d6. La calibration de l'appareil est effectuée au moyen de DMSO. Les déplacements chimiques sont exprimés en ppm. L'aspect des signaux est noté : singulet (s), doublet (d), triplet (t), quadruplet (q), multiplet (m), quintuplet (*5) et couplage AB (AB). - Mesure de l'activité anti-élastase L'activité anti-élastase est mesurée selon la méthode qui consiste à faire réagir l'élastase de leucocytes humains (référence SE 563; Elastin Products Co.; Owensville, MO, USA) avec le N-succinyl-(Ala)3-p-nitroanilide (réf. S4760; Sigma) et mesurer la libération de p-nitroaniline. On utilise le N-succinyl-(Ala)3-p-nitroanilide en solution dans le tétrahydrofurane et une solution d'élastase à 100 mg/ml dans un mélange de glycérol et de tampon acétate de sodium (50/50; v/v), pH5. L'activité de l'enzyme est mesurée à 37°C dans 100 mM de tampon Tris-HCI, pH8 contenant 0,01 % de Triton X-100 (volume/volume) et 0,02 % d'azide de sodium (poids/volume). Le céramide à tester, solubilisé dans le tétrahydrofurane (concentration en THF = 0,5 % en volume) est préincubé en présence de l'enzyme (0,05 mg/ml) dans le tampon pendant 5 minutes à 37°C. On ajoute le N-succinyl-(Ala)3-p-nitroanilide (concentration finale : 250 µM) et on mesure la libération de la p-nitroaniline dans une cuve en quartz par spectrophotométrie à 410 nm. La capacité inhibitrice du céramide est exprimée en pourcentage d'inhibition (% I) selon la relation : %I = (1 -(Vi)/(Vo))×100 [formula] dans laquelle Vi et Vo sont les vitesses d'apparition de la p-nitroaniline en présence et en absence d'inhibiteur respectivement. - Mesure de l'amélioration de la barrière cutanée a) mesure de la Perte Insensible en Eau (PIE) La mesure de la PIE permet de quantifier la très faible quantité d'eau qui diffuse passivement à travers le stratum corneum. Ce paramètre représente un très bon index de la fonction barrière du stratum corneum. Cette méthode est surtout utilisée pour contrôler l'efficacité de formules cosmétiques qui, contenant certains types de lipides sont capables de diminuer la PIE et, en conséquence, d'empêcher la déshydratation du stratum corneum. La sonde est laissée en contact de la peau pendant 2 minutes environ de façon à atteindre une position d'équilibre. PIE = D'(dP)/(dx)(gradient de pression de vapeur) [formula] Les valeurs sont exprimées en g/m^2/heure et permettent de calculer un delta de PIE = PIE (peau traitée) - PIE (peau témoin). L'appareil utilisé est un Evaporimètre EPI de Servomed. Les mesures sont effectuées sur deux groupes de 15 volontaires sains ayant une peau sèche, avant l'application du produit (t=0) et après l'application (t=0,5 heure, 1 heure, 3 heures et 6 heures) sur la face interne des deux avant-bras. L'analogue de céramide selon l'invention ou le céramide témoin est incorporé dans une crème ayant la composition suivante (en % en poids) : […]

inhibition at 250 µM: 81% | inhibition at 500 µM: 100%
SMILES: CCCCCCCCCCCCC/C=C/[C@@H](O)[C@H](CO)NC(=O)CCCCCCCCCCCCCCC [Référence (a), N-palmitoyl-D-érythro-1,3-dihydroxy-2-amino-4-trans octadécène, reference compound]

inhibition at 250 µM: 44% | inhibition at 500 µM: 50%
SMILES: CCCCCCCCCCCCCCCCCC(=O)N[C@@H](CO)[C@H](O)[C@H](O)CCCCCCCCCCCCCC [Référence (b), N-stéaroyl-phytosphingosine, reference compound]

inhibition at 250 µM: 8% | inhibition at 500 µM: 57%
SMILES: CCCCCCCCCCCCCCCC(=O)NC(C)(CO)COC(=O)CCCCCCCCCCCCCCC (stereo not shown) [Exemple 2, 1-palmitoyl-2-méthyl-2-palmitoylamino-1,3-propanediol]

Second part, the molecule before the results:

SMILES: CCCCCCCCCCCCCCCC(=O)NC(CO)COC(=O)CCCCCCCCCCCCCCC (stereo not shown) [Exemple 1, 1-palmitoyl-2-palmitoylamino-1,3-propanediol]
inhibition at 250 µM: 55% | inhibition at 500 µM: 66%

SMILES: CCCCCCCCCCCCCCCC(=O)NC(CC)(CO)COC(=O)CCCCCCCCCCCCCCC (stereo not shown) [Exemple 3, 1-palmitoyl-2-éthyl-2-palmitoylamino-1,3-propanediol]
inhibition at 250 µM: 33% | inhibition at 500 µM: 43%

Source: EP0968998A1, “Cosmetic compositions, ceramide analogues with anti-elastase activity and process for their preparation” (ELF ATOCHEM S.A., priority 1998, dated 2000)
